Patent US20010006697A1, “Composition and method for producing low cholesterol eggs” (priority 1997, published 2001)
Values joined by “and” are separate entries in the source; they are usually repeats but may differ in a detail not shown here. Equal values may be shown once. Read-outs that look alike come from different tables or passages of the source. Marks after values point to notes of the source that are not given here.

Experiments:
laying hens [1] = test: Yolk cholesterol contents of eggs from statin-treated laying hens; assay type: in vivo, White Leghorn hens
Experimental: Agric. […] Hens were treated as described in Example 1. […] The eggs were hard-cooked, and the yolks were separated, weighed, and crumbled. […] Agric. […] Egg homogenate filtrates were analyzed for cholesterol as described in Rudel, L. L. and Morris, M. D., J. Lipid Res. 14:364-366 (1973).

laying hens [2] = test: Egg production, egg weights and yolk weights of statin-treated laying hens; assay type: in vivo, White Leghorn hens
Experimental: Hens were treated as described in Example 1. Egg yolk was weighed as outlined in Example 2.

laying hens [3] = details: 0.03% of diet; day 35, fasted 15 hours
plasma VLDL particles [4] = details: day 35
plasma VLDL particles [5] = details: day 35; remark: listed apart in the source
laying hens [6] = test: Liver cholesterol content; details: day 35
[7] = 0.06% of diet, week 5 (maximal reduction for simvastatin, lovastatin)
[8] = 0.03% of diet, Overall (weeks 1-5)
[9] = 0.06% of diet, Overall (weeks 1-5)

## CCC(C)(C)C(=O)O[C@H]1C[C@@H](C)C=C2C=C[C@H](C)[C@H](CC[C@@H]3C[C@@H](O)CC(=O)O3)[C@H]21 [Simvastatin]
Laying hens [1]; 0.03% of diet, Week 0
  Yolk cholesterol content, mg cholesterol/g yolk: 10.8 ± 0.2^a mg cholesterol/g yolk
  Yolk cholesterol content, mg cholesterol/yolk: 189.7 ± 6.1^a mg cholesterol/yolk
Laying hens [1]; 0.03% of diet, Week 1
  Yolk cholesterol content, mg cholesterol/g yolk: 11.2 ± 0.2^a,b mg cholesterol/g yolk
  Yolk cholesterol content, mg cholesterol/yolk: 192.9 ± 5.3^a mg cholesterol/yolk
Laying hens [1]; 0.03% of diet, Week 2
  Yolk cholesterol content, mg cholesterol/g yolk: 10.3 ± 0.2^c,d mg cholesterol/g yolk
Laying hens [1]; 0.03% of diet, Week 3
  Yolk cholesterol content, mg cholesterol/g yolk: 10.0 ± 0.1^c,d mg cholesterol/g yolk
  Yolk cholesterol content, mg cholesterol/yolk: 166.2 ± 2.7^b mg cholesterol/yolk
Laying hens [1]; 0.03% of diet, Week 4
  Yolk cholesterol content, mg cholesterol/g yolk: 10.3 ± 0.2^b,c mg cholesterol/g yolk
Laying hens [1]; 0.03% of diet, Week 5
  Yolk cholesterol content, mg cholesterol/g yolk: 10.1 ± 0.1^b mg cholesterol/g yolk
  Yolk cholesterol content, mg cholesterol/yolk: 172.1 ± 2.9^b,c mg cholesterol/yolk
Laying hens [1]; 0.06% of diet, Week 0
  Yolk cholesterol content, mg cholesterol/g yolk: 11.0 ± 0.3^a mg cholesterol/g yolk
  Yolk cholesterol content, mg cholesterol/yolk: 191.1 ± 7.9^a mg cholesterol/yolk
Laying hens [1]; 0.06% of diet, Week 1
  Yolk cholesterol content, mg cholesterol/g yolk: 10.7 ± 0.2^b mg cholesterol/g yolk
  Yolk cholesterol content, mg cholesterol/yolk: 188.7 ± 9.1^a,b mg cholesterol/yolk
Laying hens [1]; 0.06% of diet, Week 2
  Yolk cholesterol content, mg cholesterol/g yolk: 10.0 ± 0.1^d mg cholesterol/g yolk
  Yolk cholesterol content, mg cholesterol/yolk: 170.8 ± 3.0^b mg cholesterol/yolk
Laying hens [1]; 0.06% of diet, Week 3
  Yolk cholesterol content, mg cholesterol/g yolk: 9.8 ± 0.1^d mg cholesterol/g yolk
  Yolk cholesterol content, mg cholesterol/yolk: 166.0 ± 4.6^b mg cholesterol/yolk
Laying hens [1]; 0.06% of diet, Week 4
  Yolk cholesterol content, mg cholesterol/g yolk: 9.9 ± 0.3^c mg cholesterol/g yolk
  Yolk cholesterol content, mg cholesterol/yolk: 170.4 ± 7.0^b mg cholesterol/yolk
Laying hens [1]; 0.06% of diet, Week 5
  Yolk cholesterol content, mg cholesterol/g yolk: 9.3 mg cholesterol/g yolk and 9.3 ± 0.1^c mg cholesterol/g yolk
  Yolk cholesterol content, mg cholesterol/yolk: 158.0 mg cholesterol/yolk and 158.0 ± 2.7^c,d mg cholesterol/yolk
Laying hens [1]; [7]
  yolk cholesterol reduction from control on a per yolk (egg) basis: 22%
  yolk cholesterol reduction from control per g of yolk (mg/g basis): 20%
Laying hens [2]; [8]
  Egg weight, g: 63.3 ± 1.4^a,b (141) g
  Hen-day egg production, %: 80.6 ± 2.3^a,b (141) %
Laying hens [2]; 0.03% of diet, Week 1
  Egg weight, g: 63.8 ± 1.0^a g
  Hen-day egg production, %: 80.0 ± 2.5^d %
Laying hens [2]; 0.03% of diet, Week 2
  Egg weight, g: 63.9 ± 0.9^a,b g
  Hen-day egg production, %: 85.7 ± 1.5^a,b %
Laying hens [2]; 0.03% of diet, Week 3
  Egg weight, g: 62.5 ± 0.7^b,c g
  Hen-day egg production, %: 80.0 ± 1.2^b %
Laying hens [2]; 0.03% of diet, Week 4
  Egg weight, g: 62.8 ± 0.7^b,c g
  Hen-day egg production, %: 80.0 ± 1.2^b,c %
Laying hens [2]; 0.03% of diet, Week 5
  Egg weight, g: 62.9 ± 0.7^a,b g
  Hen-day egg production, %: 80.0 ± 1.2^b,c %
Laying hens [2]; [9]
  Egg weight, g: 62.0 ± 1.9^a,b (144) g
  Hen-day egg production, %: 82.3 ± 1.9^a,b (144) %
Laying hens [2]; 0.06% of diet, Week 1
  Egg weight, g: 63.8 ± 1.0^a g
  Hen-day egg production, %: 85.7 ± 1.5^b,c %
Laying hens [2]; 0.06% of diet, Week 2
  Egg weight, g: 62.0 ± 1.0^b,c g
  Hen-day egg production, %: 82.9 ± 1.0^b %
Laying hens [2]; 0.06% of diet, Week 3
  Egg weight, g: 61.0 ± 1.0^c g
  Hen-day egg production, %: 77.1 ± 1.2^b %
Laying hens [2]; 0.06% of diet, Week 4
  Egg weight, g: 62.2 ± 1.0^c,d g
  Hen-day egg production, %: 82.9 ± 1.0^b %
Laying hens [2]; 0.06% of diet, Week 5
  Egg weight, g: 60.5 ± 0.8^b g
  Hen-day egg production, %: 88.6 ± 1.0^a %
Laying hens [3]
  change of plasma total cholesterol concentration vs control: −36%
Plasma VLDL particles [4]; 0.03% of diet
  Plasma VLDL particle Diameter nm: 35.2 ± 0.1^a,b nm
Plasma VLDL particles [4]; 0.06% of diet
  Plasma VLDL particle Diameter nm: 35.3 ± 0.1^a,b nm
Plasma VLDL particles [5]; 0.03% of diet
  Plasma VLDL composition: EC (esterified cholesterol): 0.06 ± 0.02^a,b %
  Plasma VLDL composition: PC (phosphatidylcholine): 12.15 ± 0.58^b %
  Plasma VLDL composition: PE (phosphatidylethanolamine): 3.96 ± 0.17^a %
  Plasma VLDL composition: Protein: 17.99 ± 1.48^a %
  Plasma VLDL composition: SM (sphingomyelin): 1.77 ± 1.24^a %
  Plasma VLDL composition: TG (triglyceride): 61.23 ± 2.98^a %
  Plasma VLDL composition: UC (unesterified cholesterol): 2.84 ± 0.20^a %
Plasma VLDL particles [5]; 0.06% of diet
  Plasma VLDL composition: EC (esterified cholesterol): 0.08 ± 0.04^a,b %
  Plasma VLDL composition: PC (phosphatidylcholine): 13.85 ± 0.61^a,b %
  Plasma VLDL composition: PE (phosphatidylethanolamine): 3.65 ± 0.51^a %
  Plasma VLDL composition: Protein: 17.06 ± 0.84^a %
  Plasma VLDL composition: SM (sphingomyelin): 0.36 ± 0.23^a %
  Plasma VLDL composition: TG (triglyceride): 62.03 ± 1.53^a %
  Plasma VLDL composition: UC (unesterified cholesterol): 2.97 ± 0.13^a %
Laying hens [6]; 0.03% of diet
  Liver Cholesterol mg/g liver: 3.1 ± 0.10^b mg/g liver
  Liver Cholesterol mg/liver: 86.8 ± 2.9^a mg/liver
Laying hens [6]; 0.06% of diet
  Liver Cholesterol mg/g liver: 2.9 ± 0.04^b,c mg/g liver
  Liver Cholesterol mg/liver: 82.6 ± 1.9^a mg/liver
